According to PubChem BioAssay AID328 (DTP/NCI, 2004):
Values joined by “and” are separate entries in the source; they are usually repeats but may differ in a detail not shown here. Equal values may be shown once. Inconclusive results and toxic doses are left out.

Tested on: BDF1 mice, P388 leukemia ip, median survival T/C
Test: NCI In Vivo Anticancer Drug Screen. Data for tumor model P388 Leukemia (intraperitoneal) in B6D2F1 (BDF1) mice
Settings: endpoint: median survival time, higher = longer survival
In short: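 Mice carrying the transplantable tumour receive compound or vehicle. Survival is followed in each arm, and the treated measure is divided by the vehicle measure.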

[1] = dose: 100.0 mg/kg/injection, schedule: Q01DX009 (ip), vehicle: saline
[2] = dose: 75.0 mg/kg/injection, schedule: Q01DX009 (ip), vehicle: Klucel (hydroxypropylcellulose) (HPC)
[3] = dose: 6.25 mg/kg/injection, schedule: Q01DX009 (ip), vehicle: saline
[4] = dose: 50.0 mg/kg/injection, schedule: Q01DX009 (ip), vehicle: saline
[5] = dose: 100.0 mg/kg/injection, schedule: Q04DX003 (ip), vehicle: saline
[6] = dose: 200.0 mg/kg/injection, schedule: Q04DX003 (ip), vehicle: saline
[7] = dose: 400.0 mg/kg/injection, schedule: Q04DX003 (ip), vehicle: saline
[8] = dose: 3.12 mg/kg/injection, schedule: Q01DX009 (ip), vehicle: saline
[9] = dose: 100.0 mg/kg/injection, schedule: Q04DX003 (ip), vehicle: saline with Tween-80
[10] = dose: 200.0 mg/kg/injection, schedule: Q04DX003 (ip), vehicle: saline with Tween-80
[11] = dose: 400.0 mg/kg/injection, schedule: Q04DX003 (ip), vehicle: saline with Tween-80

SMILES: O=C1NC(=O)C(F)(F)C(O)N1 (stereo unspecified)
- T/C (dose: 12.0 mg/kg/injection, schedule: Q01DX009 (ip), vehicle: saline): 115 % of control
- T/C (dose: 65.0 mg/kg/injection, schedule: Q01DX009 (ip), vehicle: saline): 154 % of control
- T/C [1]: 154 % of control
- T/C (dose: 150.0 mg/kg/injection, schedule: Q01DX009 (ip), vehicle: saline): 166 % of control
- T/C (dose: 220.0 mg/kg/injection, schedule: Q01DX009 (ip), vehicle: saline): 179 % of control
- T/C (dose: 320.0 mg/kg/injection, schedule: Q01DX009 (ip), vehicle: saline): 195 % of control

SMILES: CCCNC1=C(C)C(=O)C2=C(C1=O)[C@H](COC(N)=O)[C@]1(OC)[C@@H]3N[C@@H]3CN21
- T/C (dose: 2.0 mg/kg/injection, schedule: Q01DX009 (ip), vehicle: saline sonified): 205 % of control
- T/C (dose: 2.0 mg/kg/injection, schedule: Q01DX009 (ip), vehicle: saline): 180 % of control
- T/C (dose: 3.0 mg/kg/injection, schedule: Q01DX009 (ip), vehicle: saline): 200 % of control
- T/C (dose: 3.13 mg/kg/injection, schedule: Q01DX009 (ip), vehicle: saline sonified): 150 % of control

SMILES: CCc1cc2c(cc1C(=O)/C=C\C(=O)O)C(C)(C)CCC2(C)C
- T/C (dose: 2.5 mg/kg/injection, schedule: Q01DX009 (ip), vehicle: Klucel (hydroxypropylcellulose) (HPC)): 102 % of control
- T/C (dose: 5.0 mg/kg/injection, schedule: Q01DX009 (ip), vehicle: Klucel (hydroxypropylcellulose) (HPC)): 99 % of control
- T/C (dose: 10.0 mg/kg/injection, schedule: Q01DX009 (ip), vehicle: Klucel (hydroxypropylcellulose) (HPC)): 100 % of control

SMILES: COc1cc2c(cc1OC)-c1c3c(cc4c1[C@H](C2)N(C)CC4)OCO3
- T/C (dose: 37.5 mg/kg/injection, schedule: Q01DX009 (ip), vehicle: Klucel (hydroxypropylcellulose) (HPC)): 97 % of control
- T/C [2]: 98 % of control
- T/C (dose: 150.0 mg/kg/injection, schedule: Q01DX009 (ip), vehicle: Klucel (hydroxypropylcellulose) (HPC)): 98 % of control

SMILES: CCN(CC)CCCCCCNc1cc(OC)c(F)c2c(C)ccnc12
- T/C (dose: 3.13 mg/kg/injection, schedule: Q01DX009 (ip), vehicle: saline): 109 % of control
- T/C [3]: 107 % of control
- T/C (dose: 12.5 mg/kg/injection, schedule: Q01DX009 (ip), vehicle: saline): 116 % of control

SMILES: NC(N)=NCCCC(=O)O
- T/C [4]: 104 % of control
- T/C [1]: 94 % of control and 103 % of control
- T/C [5]: 95 % of control
- T/C (dose: 200.0 mg/kg/injection, schedule: Q01DX009 (ip), vehicle: saline): 101 % of control and 103 % of control
- T/C [6]: 100 % of control
- T/C (dose: 400.0 mg/kg/injection, schedule: Q01DX009 (ip), vehicle: saline): 92 % of control and 106 % of control
- T/C [7]: 104 % of control

SMILES: O=C(O)C1CC[N-]CC1.O=C(O)C1CC[N-]CC1.[Cl][Pt+2]([Cl])([Cl])[Cl]
- T/C [8]: 109 % of control
- T/C [3]: 90 % of control
- T/C (dose: 25.0 mg/kg/injection, schedule: Q01DX009 (ip), vehicle: saline): 94 % of control
- T/C [4]: 100 % of control

SMILES: CCCCC(O)C1=CC(=O)C2CC(C)=C(C)CC2C1=O (stereo unspecified)
- T/C [9]: 92 % of control
- T/C [10]: 102 % of control
- T/C [11]: 100 % of control

SMILES: c1ccc(C2SCSCS2)cc1
- T/C (dose: 100.0 mg/kg/injection, schedule: Q04DX003 (ip), vehicle: Klucel (hydroxypropylcellulose) (HPC)): 100 % of control
- T/C (dose: 200.0 mg/kg/injection, schedule: Q04DX003 (ip), vehicle: Klucel (hydroxypropylcellulose) (HPC)): 95 % of control
- T/C (dose: 400.0 mg/kg/injection, schedule: Q04DX003 (ip), vehicle: Klucel (hydroxypropylcellulose) (HPC)): 95 % of control

SMILES: CC1CNC(=O)O1 (stereo unspecified)
- T/C [5]: 115 % of control
- T/C [6]: 110 % of control
- T/C [7]: 95 % of control

SMILES: CCCCN(C)N=Nc1ccc(CCC(=O)OCC)cc1
- T/C (dose: 78.0 mg/kg/injection, schedule: Q04DX003 (ip), vehicle: saline with Tween-80): 100 % of control
- T/C (dose: 118.0 mg/kg/injection, schedule: Q04DX003 (ip), vehicle: saline with Tween-80): 118 % of control
- T/C (dose: 177.0 mg/kg/injection, schedule: Q04DX003 (ip), vehicle: saline with Tween-80): 104 % of control
- T/C [10]: 118 % of control
- T/C [11]: 150 % of control and 168 % of control
- T/C (dose: 600.0 mg/kg/injection, schedule: Q04DX003 (ip), vehicle: saline with Tween-80): 184 % of control

SMILES: CCC1CCN2CCc3c([nH]c4ccccc34)C(C(=O)OC)(c3cc4c(cc3OC)N(C)C3C(O)(C(=O)OC)C(OC(C)=O)C5(CC)CCCN6CCC43C65)CC2C1 (stereo unspecified)
- T/C (dose: 0.06 mg/kg/injection, schedule: Q01DX009 (ip), vehicle: water): 95 % of control
- T/C (dose: 0.12 mg/kg/injection, schedule: Q01DX009 (ip), vehicle: water): 100 % of control
- T/C (dose: 0.25 mg/kg/injection, schedule: Q01DX009 (ip), vehicle: water): 104 % of control
- T/C (dose: 0.5 mg/kg/injection, schedule: Q01DX009 (ip), vehicle: water): 95 % of control
- T/C (dose: 1.0 mg/kg/injection, schedule: Q01DX009 (ip), vehicle: water): 86 % of control and 104 % of control
- T/C (dose: 2.0 mg/kg/injection, schedule: Q01DX009 (ip), vehicle: water): 90 % of control and 95 % of control
- T/C (dose: 4.0 mg/kg/injection, schedule: Q01DX009 (ip), vehicle: water): 90 % of control
- T/C (dose: 8.0 mg/kg/injection, schedule: Q01DX009 (ip), vehicle: water): 95 % of control

SMILES: CCC(=O)c1cc([N+](=O)[O-])ccc1N
- T/C (dose: 50.0 mg/kg/injection, schedule: Q04DX003 (ip), vehicle: saline with Tween-80): 90 % of control
- T/C [9]: 95 % of control
- T/C [10]: 109 % of control

SMILES: c1ccc(N/N=C(/C[n+]2cc3ccccc3c3ccccc32)c2ccccc2)cc1
- T/C (dose: 25.0 mg/kg/injection, schedule: Q01DX009 (ip), vehicle: Klucel (hydroxypropylcellulose) (HPC)): 114 % of control
- T/C (dose: 33.0 mg/kg/injection, schedule: Q01DX009 (ip), vehicle: Klucel (hydroxypropylcellulose) (HPC)): 113 % of control
- T/C (dose: 35.0 mg/kg/injection, schedule: Q01DX009 (ip), vehicle: Klucel (hydroxypropylcellulose) (HPC)): 95 % of control
- T/C (dose: 50.0 mg/kg/injection, schedule: Q01DX009 (ip), vehicle: Klucel (hydroxypropylcellulose) (HPC)): 100 % of control
- T/C [2]: 112 % of control and 122 % of control
- T/C (dose: 100.0 mg/kg/injection, schedule: Q01DX009 (ip), vehicle: Klucel (hydroxypropylcellulose) (HPC)): 114 % of control

SMILES: COc1cccc2c1C13CC(C)CC(C2)C1CCC(=O)N3 (stereo unspecified)
- T/C (dose: 75.0 mg/kg/injection, schedule: Q04DX003 (ip), vehicle: saline): 100 % of control
- T/C (dose: 150.0 mg/kg/injection, schedule: Q04DX003 (ip), vehicle: saline): 105 % of control
- T/C (dose: 300.0 mg/kg/injection, schedule: Q04DX003 (ip), vehicle: saline): 116 % of control

SMILES: Cc1cc(N(C)C)c2ccc3c(ccc4c(N(C)C)cc(C)nc43)c2n1
- T/C (dose: 50.0 mg/kg/injection, schedule: Q01DX009 (ip), vehicle: saline with Tween-80): 121 % of control
- T/C (dose: 100.0 mg/kg/injection, schedule: Q01DX009 (ip), vehicle: saline with Tween-80): 123 % of control

SMILES: Nc1ncn(C2CC(O)C(CO)O2)c(=O)n1 (stereo unspecified)
- T/C (dose: 0.03 mg/kg/injection, schedule: Q01DX009 (ip), vehicle: saline): 119 % of control
- T/C (dose: 0.05 mg/kg/injection, schedule: Q01DX009 (ip), vehicle: saline): 121 % of control
- T/C (dose: 0.1 mg/kg/injection, schedule: Q01DX009 (ip), vehicle: Klucel (hydroxypropylcellulose) (HPC)): 190 % of control
- T/C (dose: 0.2 mg/kg/injection, schedule: Q01DX009 (ip), vehicle: Klucel (hydroxypropylcellulose) (HPC)): 160 % of control and 206 % of control
- T/C (dose: 0.4 mg/kg/injection, schedule: Q01DX009 (ip), vehicle: Klucel (hydroxypropylcellulose) (HPC)): 175 % of control and 190 % of control
- T/C (dose: 0.4 mg/kg/injection, schedule: Q01DX009 (ip), vehicle: saline): 150 % of control
- T/C (dose: 0.8 mg/kg/injection, schedule: Q01DX009 (ip), vehicle: Klucel (hydroxypropylcellulose) (HPC)): 109 % of control and 212 % of control
- T/C (dose: 0.8 mg/kg/injection, schedule: Q01DX009 (ip), vehicle: saline): 188 % of control
- T/C (dose: 1.56 mg/kg/injection, schedule: Q01DX009 (ip), vehicle: saline): 106 % of control
- T/C [8]: 94 % of control
- T/C (dose: 3.12 mg/kg/injection, schedule: Q04DX003 (ip), vehicle: saline): 235 % of control
- T/C [3]: 90 % of control
- T/C (dose: 6.25 mg/kg/injection, schedule: Q04DX003 (ip), vehicle: saline): 265 % of control
- T/C (dose: 12.5 mg/kg/injection, schedule: Q04DX003 (ip), vehicle: saline): 160 % of control
